Among the data in ChEMBL document CHEMBL1134116, “Ethambutol analogues as potential antimycobacterial agents” (Bioorg Med Chem Lett, 2001) are Activity values, retold here.

Calls of active or inactive are those of the source. No cut-off for these calls is given here.

One experiment deals with Mycolicibacterium smegmatis. Kind of experiment: Antimycobacterial activity was evaluated against Mycobacterium smegmatis; Active. It is filed as functional, organism-based.
Turning to `OCCNCCNCCO`, the result was Active.
On to `CC[C@@H](CO)NCCN1CCC[C@H]1CO`, for which the result was Active.
Still for that read-out and setting: then `CC(C)C[C@@H](CO)NCCN[C@@H](CO)CC(C)C`, with “Active”; and `OC[C@H](Cc1ccccc1)NCCN[C@@H](CO)Cc1ccccc1`, with “Active”; and `OC[C@H]1N[C@@H](CSc2ccccc2)C(O)[C@H]1O` (stereo not given in full), with “Active”.
On the same count and under the same terms, next, `CC[C@@H](CO)NCCN[C@H](C)CO`: “Active”; `CC[C@@H](CO)NCCN[C@@H](C)CO`: “Active”.
Still for that read-out and setting: then `CC[C@H](CO)NCCN[C@@H](CC)CO`, with “Active”; and `CC[C@@H](CO)NCCN[C@@H](CC)CO`, with “Active”; and `CC(C)[C@@H](CO)NCCN[C@H](CO)C(C)C`, with “Active”.
Take `OC[C@@H]1CCCN1CCN1CCC[C@H]1CO`: the outcome was Active.

The next experiment deals with Mycolicibacterium smegmatis. Kind of experiment: Antimycobacterial activity was evaluated against Mycobacterium smegmatis; Inactive. It is filed as functional, organism-based.
With `OCCNCCNCCO`, the result was inactive.
Same read-out and setting: next, `COC(=O)[C@H](CO)NCCN[C@@H](CO)C(=O)OC`: “inactive”; `O=C(O)CNCCNCC(=O)O`: “inactive”.
Still for that read-out and setting: next, `O=C(O)CN(CCN(CC(=O)O)CC(=O)O)CC(=O)O`: “inactive”.
